# The supplement of paper PMC10307832
# Assays:
# Test in all cases: relative viability (nuclei count vs DMSO), 5 days (fraction); higher = more cells survive
# 201T = system: 201T
# How it was run: (§1)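 One day after seeding in 1536-well plates, lung cancer cell lines were dosed by pin tool. Dosing was either single-drug or a fixed anchor-drug dose plus five library-drug doses (not always all listed) in √10 steps. After 5 days, nuclei were stained in one fix-and-stain step and counted on 4× images, and relative viability is the nuclei count of treated wells over that of vehicle wells, given as the median of duplicate plates.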
# A-427 = system: A-427
# How it was run: as §1
# ABC-1 = system: ABC-1
# How it was run: as §1
# BEN = system: BEN
# How it was run: as §1
# CAL-12T = system: CAL-12T
# How it was run: as §1
# H3255 = system: H3255
# How it was run: as §1
# HCC-15 = system: HCC-15
# How it was run: as §1
# LC-2-ad = system: LC-2-ad
# How it was run: as §1
# LCLC-97TM1 = system: LCLC-97TM1
# How it was run: as §1
# NCI-H1650 = system: NCI-H1650
# How it was run: as §1
# NCI-H1651 = system: NCI-H1651
# How it was run: as §1
# NCI-H1792 = system: NCI-H1792
# How it was run: as §1
# NCI-H1915 = system: NCI-H1915
# How it was run: as §1
# NCI-H2023 = system: NCI-H2023
# How it was run: as §1
# NCI-H2087 = system: NCI-H2087
# How it was run: as §1
# NCI-H441 = system: NCI-H441
# How it was run: as §1
# NCI-H460 = system: NCI-H460
# How it was run: as §1
# NCI-H520 = system: NCI-H520
# How it was run: as §1
# NCI-H596 = system: NCI-H596
# How it was run: as §1
# NCI-H650 = system: NCI-H650
# How it was run: as §1
# NCI-H661 = system: NCI-H661
# How it was run: as §1
# NCI-H727 = system: NCI-H727
# How it was run: as §1
# PC-3 [JPC-3] = system: PC-3 [JPC-3]
# How it was run: as §1
structure (smiles),measurement,setting,value
COc1cc(N2CCC(C(N)=O)CC2)ccc1Nc1nc(N)c(Cl)c(Nc2ccccc2S(=O)(=O)C(C)C)n1 [HG-5-88-01] + CC(C)C[C@H](NC(=O)[C@H](Cc1ccccc1)NC(=O)c1cnccn1)B(O)O [Bortezomib] (partner 0.002 µM),relative viability,201T; first compound 0.04 µM,1.12
same,relative viability,201T; first compound 0.1265 µM,1.03
same,relative viability,201T; first compound 0.4 µM,1.1
same,relative viability,201T; first compound 1.265 µM,1.06
same,relative viability,201T; first compound 4 µM,1.2
same,relative viability,A-427; first compound 0.04 µM,0.968
same,relative viability,A-427; first compound 0.1265 µM,0.955
same,relative viability,A-427; first compound 0.4 µM,1.01
same,relative viability,A-427; first compound 1.265 µM,1.05
same,relative viability,A-427; first compound 4 µM,0.804
same,relative viability,ABC-1; first compound 0.04 µM,0.335
same,relative viability,ABC-1; first compound 0.1265 µM,0.332
same,relative viability,ABC-1; first compound 0.4 µM,0.237
same,relative viability,ABC-1; first compound 1.265 µM,0.321
same,relative viability,ABC-1; first compound 4 µM,0.283
same,relative viability,BEN; first compound 0.04 µM,0.652
same,relative viability,BEN; first compound 0.1265 µM,0.752
same,relative viability,BEN; first compound 0.4 µM,0.714
same,relative viability,BEN; first compound 1.265 µM,0.841
same,relative viability,BEN; first compound 4 µM,0.791
same,relative viability,CAL-12T; first compound 0.04 µM,1.16
same,relative viability,CAL-12T; first compound 0.1265 µM,0.897
same,relative viability,CAL-12T; first compound 0.4 µM,0.837
same,relative viability,CAL-12T; first compound 1.265 µM,0.955
same,relative viability,CAL-12T; first compound 4 µM,0.579
same,relative viability,H3255; first compound 0.04 µM,0.748
same,relative viability,H3255; first compound 0.1265 µM,0.745
same,relative viability,H3255; first compound 0.4 µM,0.75
same,relative viability,H3255; first compound 4 µM,0.388
same,relative viability,HCC-15; first compound 0.04 µM,1
same,relative viability,HCC-15; first compound 0.1265 µM,1.09
same,relative viability,HCC-15; first compound 0.4 µM,0.966
same,relative viability,HCC-15; first compound 1.265 µM,1.02
same,relative viability,HCC-15; first compound 4 µM,0.746
same,relative viability,LC-2-ad; first compound 0.04 µM,1.06
same,relative viability,LC-2-ad; first compound 0.1265 µM,1.04
same,relative viability,LC-2-ad; first compound 0.4 µM,0.945
same,relative viability,LC-2-ad; first compound 1.265 µM,0.973
same,relative viability,LC-2-ad; first compound 4 µM,0.819
same,relative viability,LCLC-97TM1; first compound 0.04 µM,1.05
same,relative viability,LCLC-97TM1; first compound 0.1265 µM,0.313
same,relative viability,LCLC-97TM1; first compound 0.4 µM,0.308
same,relative viability,LCLC-97TM1; first compound 1.265 µM,0.546
same,relative viability,LCLC-97TM1; first compound 4 µM,0.213
same,relative viability,NCI-H1650; first compound 0.04 µM,0.207
same,relative viability,NCI-H1650; first compound 0.1265 µM,0.219
same,relative viability,NCI-H1650; first compound 0.4 µM,0.195
same,relative viability,NCI-H1650; first compound 1.265 µM,0.185
same,relative viability,NCI-H1650; first compound 4 µM,0.189
same,relative viability,NCI-H1651; first compound 0.04 µM,0.844
same,relative viability,NCI-H1651; first compound 0.1265 µM,0.935
same,relative viability,NCI-H1651; first compound 0.4 µM,0.941
same,relative viability,NCI-H1651; first compound 1.265 µM,0.976
same,relative viability,NCI-H1651; first compound 4 µM,1.03
same,relative viability,NCI-H1792; first compound 0.04 µM,0.975
same,relative viability,NCI-H1792; first compound 0.1265 µM,0.929
same,relative viability,NCI-H1792; first compound 0.4 µM,0.941
same,relative viability,NCI-H1792; first compound 1.265 µM,0.817
same,relative viability,NCI-H1792; first compound 4 µM,0.958
same,relative viability,NCI-H1915; first compound 0.04 µM,0.977
same,relative viability,NCI-H1915; first compound 0.1265 µM,0.941
same,relative viability,NCI-H1915; first compound 0.4 µM,0.941
same,relative viability,NCI-H1915; first compound 1.265 µM,0.974
same,relative viability,NCI-H1915; first compound 4 µM,0.621
same,relative viability,NCI-H2023; first compound 0.04 µM,1.08
same,relative viability,NCI-H2023; first compound 0.1265 µM,1.34
same,relative viability,NCI-H2023; first compound 0.4 µM,0.753
same,relative viability,NCI-H2023; first compound 1.265 µM,0.542
same,relative viability,NCI-H2023; first compound 4 µM,0.454
same,relative viability,NCI-H2087; first compound 0.04 µM,0.818
same,relative viability,NCI-H2087; first compound 0.1265 µM,0.692
same,relative viability,NCI-H2087; first compound 0.4 µM,0.713
same,relative viability,NCI-H2087; first compound 1.265 µM,1.01
same,relative viability,NCI-H2087; first compound 4 µM,0.934
same,relative viability,NCI-H441; first compound 0.04 µM,0.579
same,relative viability,NCI-H441; first compound 0.1265 µM,0.423
same,relative viability,NCI-H441; first compound 0.4 µM,0.622
same,relative viability,NCI-H441; first compound 1.265 µM,0.558
same,relative viability,NCI-H441; first compound 4 µM,0.379
same,relative viability,NCI-H460; first compound 0.04 µM,0.955
same,relative viability,NCI-H460; first compound 0.1265 µM,1.17
same,relative viability,NCI-H460; first compound 0.4 µM,1.09
same,relative viability,NCI-H460; first compound 1.265 µM,1.04
same,relative viability,NCI-H460; first compound 4 µM,1.28
same,relative viability,NCI-H520; first compound 0.04 µM,0.45
same,relative viability,NCI-H520; first compound 0.1265 µM,0.633
same,relative viability,NCI-H520; first compound 0.4 µM,0.304
same,relative viability,NCI-H520; first compound 1.265 µM,0.698
same,relative viability,NCI-H520; first compound 4 µM,0.546
same,relative viability,NCI-H596; first compound 0.04 µM,1.25
same,relative viability,NCI-H596; first compound 0.1265 µM,0.948
same,relative viability,NCI-H596; first compound 0.4 µM,1
same,relative viability,NCI-H596; first compound 1.265 µM,0.964
same,relative viability,NCI-H596; first compound 4 µM,1.02
same,relative viability,NCI-H650; first compound 0.04 µM,0.844
same,relative viability,NCI-H650; first compound 0.1265 µM,0.767
same,relative viability,NCI-H650; first compound 0.4 µM,0.711
same,relative viability,NCI-H650; first compound 1.265 µM,0.815
same,relative viability,NCI-H650; first compound 4 µM,0.381
same,relative viability,NCI-H661; first compound 0.04 µM,0.838
same,relative viability,NCI-H661; first compound 0.1265 µM,0.878
same,relative viability,NCI-H661; first compound 0.4 µM,0.726
same,relative viability,NCI-H661; first compound 4 µM,0.894
same,relative viability,NCI-H727; first compound 0.04 µM,0.689
same,relative viability,NCI-H727; first compound 0.1265 µM,0.924
same,relative viability,NCI-H727; first compound 0.4 µM,0.769
same,relative viability,NCI-H727; first compound 1.265 µM,0.643
same,relative viability,NCI-H727; first compound 4 µM,0.388
same,relative viability,PC-3 [JPC-3]; first compound 0.04 µM,0.982
same,relative viability,PC-3 [JPC-3]; first compound 0.1265 µM,0.928
same,relative viability,PC-3 [JPC-3]; first compound 0.4 µM,0.819
same,relative viability,PC-3 [JPC-3]; first compound 1.265 µM,0.849
same,relative viability,PC-3 [JPC-3]; first compound 4 µM,0.533
